Target: MAPK14 (UniProt Q16539)
Assay: Inhibition of MAPK14 Kinase Activity

Chain of MAPK14 (Q16539 whole entry, looked up): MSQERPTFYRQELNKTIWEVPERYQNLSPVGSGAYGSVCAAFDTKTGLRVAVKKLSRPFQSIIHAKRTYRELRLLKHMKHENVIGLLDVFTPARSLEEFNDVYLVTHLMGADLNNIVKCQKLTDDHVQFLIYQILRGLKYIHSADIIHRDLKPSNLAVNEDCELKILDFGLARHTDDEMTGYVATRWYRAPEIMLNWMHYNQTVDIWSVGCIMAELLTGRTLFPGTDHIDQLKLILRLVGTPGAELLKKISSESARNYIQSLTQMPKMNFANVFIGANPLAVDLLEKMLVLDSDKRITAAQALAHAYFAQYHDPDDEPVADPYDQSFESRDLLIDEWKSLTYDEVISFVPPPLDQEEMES

IC50, < 5 µM:
Cn1nc(C(C)(C)C)cc1NC(=O)Nc1ccc(OC2CCN(C(=O)c3c(Cl)cccc3Cl)CC2)cc1
COc1ccc(C(=O)N2CCC(Oc3cc(F)cc(NC(=O)Nc4cc(C(C)(C)C)nn4C)c3)CC2)c(OC)n1
Cn1nc(C(C)(C)C)cc1NC(=O)Nc1cc(F)cc(OC2CCN(C(=O)c3cc[nH]c3)CC2)c1
Cn1nc(C(C)(C)C)cc1NC(=O)Nc1cccc(OC2CCN(C(=O)c3sccc3Cl)CC2)c1
Cn1nc(C(C)(C)C)cc1NC(=O)Nc1ccc(OC2CCN(C(=O)c3ccccc3)CC2)cc1
COc1cccc(F)c1C(=O)N1CCC(Oc2cc(F)cc(NC(=O)Nc3cc(C(C)(C)C)nn3C)c2)CC1
Cn1nc(C(C)(C)C)cc1NC(=O)Nc1cc(F)cc(OC2CCN(C(=O)C3CC3(Cl)Cl)CC2)c1 (centres undefined)
Cc1ccc(-n2nc(C(C)(C)C)cc2NC(=O)Nc2ccc(OCC3CCN(C(=O)c4c(Cl)cccc4Cl)CC3)c3ccccc23)cc1
Cn1nc(C(C)(C)C)cc1NC(=O)Nc1cccc(OC2CCN(C(=O)c3ccccc3)CC2)c1
Cn1nc(C(C)(C)C)cc1NC(=O)Nc1ccc(CN2CCN(C(=O)c3ccc(F)cc3)CC2)cc1
CN(C)CCOc1ccc(C(=O)N2CCC(Oc3cc(F)cc(NC(=O)Nc4cc(C(C)(C)C)nn4C)c3)CC2)cc1
Cn1nc(C(C)(C)C)cc1NC(=O)Nc1cccc(OC2CCN(C(=O)c3ccc(Cl)s3)CC2)c1
CC(C)n1nc(C(C)(C)C)cc1NC(=O)Nc1ccc(CN2CCN(C(=O)c3ccc(F)cc3F)CC2)c(F)c1
Cn1nc(C(C)(C)C)cc1NC(=O)Nc1ccc(OC2CCN(C(=O)c3ccc(Cl)nc3)CC2)cc1
CN1CCN(Cc2ccc(C(=O)N3CCC(Oc4cc(F)cc(NC(=O)Nc5cc(C(C)(C)C)nn5C)c4)CC3)cc2)CC1
Cc1ccc(-n2nc(C(C)(C)C)cc2NC(=O)Nc2cc(F)cc(OC3CCN(C(=O)c4ccccc4F)CC3)c2)cc1
Cn1nc(C(C)(C)C)cc1NC(=O)Nc1cc(OC2CCN(C(=O)c3c(F)cccc3F)CC2)cc(C(F)(F)F)c1
Cn1nc(C(C)(C)C)cc1NC(=O)Nc1cccc(OC2CCN(C(=O)c3c(F)cccc3F)CC2)c1
CCn1nc(C(C)(C)C)cc1NC(=O)Nc1ccc(CN2CCN(C(=O)c3c(Cl)cccc3Cl)CC2)cc1F
Cn1nc(C(C)(C)C)cc1NC(=O)Nc1ccc(OC2CCN(C(=O)C3(c4ccccc4)CC3)CC2)cc1
Cc1cc(C(=O)N2CCC(Oc3cccc(NC(=O)Nc4cc(C(C)(C)C)nn4C)c3)CC2)c(C)[nH]1
Cn1nc(C(C)(C)C)cc1NC(=O)Nc1ccc(OC2CCN(C(=O)c3c[nH]cn3)CC2)cc1
Cn1nc(C(C)(C)C)cc1NC(=O)Nc1cc(F)cc(OC2CCN(C(=O)c3ccccc3F)CC2)c1
Cn1nc(C(C)(C)C)cc1NC(=O)Nc1ccc(CN2CCN(C(=O)c3ccc(F)cc3F)CC2)cc1F
Cn1nc(C(C)(C)C)cc1NC(=O)Nc1ccc(OC2CCN(C(=O)c3cn[nH]c3)CC2)cc1
Cn1nc(C(C)(C)C)cc1NC(=O)Nc1cc(F)cc(OC2CCN(C(=O)c3c(Cl)cccc3Cl)CC2)c1
Cn1nc(C(C)(C)C)cc1NC(=O)Nc1cc(F)cc(OC2CCN(C(=O)c3ccccc3OC(F)(F)F)CC2)c1
CC(C)n1nc(C(C)(C)C)cc1NC(=O)Nc1ccc(CN2CCN(C(=O)c3c(F)cccc3F)CC2)cc1
Cn1nc(C(C)(C)C)cc1NC(=O)Nc1cccc(OC2CCN(C(=O)c3ccccc3C(F)(F)F)CC2)c1
CC(C)n1nc(C(C)(C)C)cc1NC(=O)Nc1ccc(CN2CCN(C(=O)c3c(Cl)cccc3Cl)CC2)cc1F
Cn1nc(C(C)(C)C)cc1NC(=O)Nc1ccc(OC2CCN(C(=O)c3ccccc3F)CC2)cc1
Cc1nn(C)c(C)c1C(=O)N1CCC(Oc2ccc(NC(=O)Nc3cn(C)nc3C(C)(C)C)cc2)CC1
Cn1nc(C(C)(C)C)cc1NC(=O)Nc1cccc(C2CCN(C(=O)c3c(Cl)cccc3Cl)CC2)c1
COc1ccccc1C(=O)N1CCN(Cc2ccc(NC(=O)Nc3cc(C(C)(C)C)nn3C)cc2)CC1
Cc1ccc(-n2nc(C(C)(C)C)cc2NC(=O)Nc2ccc(CN3CCN(C(=O)c4c(F)cccc4F)CC3)cc2)cc1
COc1ncccc1C(=O)N1CCC(Oc2ccc(NC(=O)Nc3cc(C(C)(C)C)nn3C)cc2)CC1
Cn1nc(C(C)(C)C)cc1NC(=O)Nc1cc(F)cc(OC2CCN(C(=O)c3cccc(CN4CCOCC4)c3)CC2)c1
Cn1nc(C(C)(C)C)cc1NC(=O)Nc1ccc(CN2CCN(C(=O)c3cc(Cl)sc3Cl)CC2)cc1
Cn1nc(C(C)(C)C)cc1NC(=O)Nc1cc(F)cc(OC2CCN(C(=O)C3CC3)CC2)c1
Cn1nc(C(C)(C)C)cc1NC(=O)Nc1ccc(CN2CCN(C(=O)c3ccccc3Cl)CC2)cc1
CCCC(C)(C)C(=O)N1CCN(c2ccc(NC(=O)Nc3cc(C(C)(C)C)nn3-c3ccc(C)cc3)cc2)CC1
CC(=O)N1CCN(Cc2ccc(NC(=O)Nc3cc(C(C)(C)C)nn3-c3ccc(C)cc3)cc2)CC1
Cc1ccc(-n2nc(C(C)(C)C)cc2NC(=O)Nc2ccc(CN3CCN(C(=O)C4CC4)CC3)cc2)cc1
Cc1ccc(-n2nc(C(C)(C)C)cc2NC(=O)Nc2cc(F)cc(OC3CCN(C(=O)c4sccc4C)CC3)c2)cc1
Cn1nc(C(C)(C)C)cc1NC(=O)Nc1ccc(CN2CCN(C(=O)c3cccnc3)CC2)cc1
Cn1nc(C(C)(C)C)cc1NC(=O)Nc1ccc(OC2CCN(C(=O)C3CCCC3)CC2)cc1
Cn1nc(C(C)(C)C)cc1NC(=O)Nc1ccc(OC2CCN(C(=O)C3CC3)CC2)cc1
Cc1ccc(-n2nc(C(C)(C)C)cc2NC(=O)Nc2ccc(OC3CCN(C(=O)c4c(Cl)cccc4Cl)CC3)cc2)cc1
CCn1nc(C(C)(C)C)cc1NC(=O)Nc1ccc(CN2CCN(C(=O)c3c(F)cccc3F)CC2)cc1F
Cn1nc(C(C)(C)C)cc1NC(=O)Nc1ccc(OC2CCN(C(=O)c3sccc3Cl)CC2)cc1
Cn1nc(C(C)(C)C)cc1NC(=O)Nc1cc(F)cc(OC2CCN(C(=O)c3ccccc3Cl)CC2)c1
Cn1nc(C(C)(C)C)cc1NC(=O)Nc1cc(F)cc(OC2CCN(C(=O)c3sccc3Cl)CC2)c1
CC(C)(C)c1cc(NC(=O)Nc2ccc(OC3CCN(C(=O)c4ccccc4Cl)CC3)cc2)[nH]n1
Cn1nc(C(C)(C)C)cc1NC(=O)Nc1ccc(CN2CCN(C(=O)c3c(Cl)cccc3Cl)CC2)cc1

From the Kinase Knowledgebase extract (Sharma et al. 2016)
